In patent US20240009170A1, “INHIBITION OF GLYCOGEN SYNTHASE KINASE-3 (GSK-3)” (Brown University, priority 2020, published 2024):

Tests used:
SW480 tumor cells = test: Immune cell co-culture of TALL-104 T cells and SW480 tumor cells; type: cell-based, Human; conditions: for dead cells out of total cells, average, after normalization: 1:1 TALL-104 to SW480
Procedure: Immune cell co-culture experiments. Co-culture experiments were conducted with GFP+ SW480 or HCT-116 colorectal cancer cells and either NK-92 natural killer cells or TALL-104 T cells in a 48-well plate, in the presence or absence of 9-ING-41. HCT-116 cells were labeled using CellTracker™ Green CMFDA (5-chloromethylfluorescein diacetate), immune cells (NK-92, TALL-104) were labeled using CellTracker™ Blue CMAC Dye (7-amino-4-chloromethylcoumarin), and ethidium homodimer-1 (EthD-1) was used as a marker of cell death (Invitrogen, Thermo Fisher Scientific, Waltham, MA, USA).
Co-culture experiments were conducted with GFP+ SW480 colorectal cancer cells and either NK-92 natural killer cells or TALL-104 T cells at various effector/target ratios in a 48-well plate, in the presence or absence of 9-ING-41.
The compound 9-lNG-41 boosts immune cell-mediated tumor cell-killing in a co-culture model. A co-culture of GFP+ SW480 tumor cells and Green CMFDA-labeled TALL-104 T cells treated with 9-ING-41 lead to an increase in tumor cell death after twenty-four hours. […] In the co-culture with tumor and immune cells only, in the absence of drug, the inventors noted that the percentage of dead cells out of total cells was approximately 27%, after normalization. Normalization was carried out by subtracting the percentage of cell death due to drug or vehicle control (DMSO) only from the percentage of dead cells observed in the co-culture treated with drug.
Pre-treatment with 9-ING-41 sensitizes SW480 tumor cells to immune cell-mediated cell killing. To determine if the increased amount of immune-cell mediated tumor cell-killing was due to the drug's impact on the tumor cells or the immune cells, the inventors next pre-treated tumor cells with 9-ING-41 for twenty-four hours before the co-culture with immune cells began. Pre-treatment with 9-ING-41 sensitized SW480 tumor cells to TALL-104 cell-mediated cell killing. The raw percentages of cell death were used to normalize the data. The inventors confirmed these co-culture results using healthy, CD8+ T cells instead of TALL-104 cells.

NK-92 cells = test: Cytokine profile of immune cell culture supernatant, NK-92; type: cell-based, Human; conditions: 1 μM, 48 hours
Procedure: Collection of cell culture supernatants used in cytokine measurements. Cells were plated at 3.5×10^4 cells in a 48-well plate (Thermo Fisher Scientific, Waltham, MA, USA) in complete medium and incubated at 37° C. with 5% CO2. At twenty-four hours after plating, almost all the tumor cells were adherent to the bottom of the flask and the complete medium was replaced with drug-containing medium. Subsequently, the culture supernatants were collected after forty-eight hours of incubation and were frozen at −80° C. until the measurement of cytokines was performed. The day of analysis, samples were thawed and centrifuged to remove cellular debris.
Human cytokine profiling. Human cell line culture supernatants were analyzed using an R&D systems Human Premixed Multi-Analyte Kit (R&D Systems, Inc., Minneapolis, MN, USA) and a Luminex 200 Instrument (LX200-XPON-RUO, Luminex Corporation, Austin, TX, USA) according to the manufacturer's instructions. […]
9-ING-41 increases secreted cytotoxic proteins IFN-v, Granzyme B, and TRAIL in immune cells. […] Here, the inventors determined how 9-ING-41 treatment impacts the immune cell cytokinome. […]

TALL-104 = test: Flow cytometric analysis of cell surface markers, TALL-104; type: cell-based, Human; conditions: compared to DMSO treatment alone
Procedure: FIG. 12 is a set of bar graphs showing flow cytometric analyses of cell surface markers of tumor and immune cells treated with 9-ING-41 in vitro. FIG. 12(A) HCT-116, FIG. 12(B) HT-29, FIG. 12(C) TALL-104, and FIG. 12(D) NK-92 cells were treated with indicated concentrations of 9-ING-41 for forty-eight hours, stained for indicated cell surface marker expression, and analyzed with a BD LSRII. Statistical significance was determined using two-tailed unpaired T tests.
To further understand the differential 9-ING-41-mediated impacts on protein expression, the inventors treated tumor and immune cells in vitro with 9-ING-41, then performed a flow cytometric analysis for expression of cell surface markers. […] A similar trend occurred in HT-29 cells, although not statistically significant. […] FIG. 10(C). […] FIG. 10(D).

[1] = Body weight, complete blood count and serum chemistry in the CT-26 BALB/c model; design: species or system BALB/c mice; conditions: mouse, in vivo
Text: As can be expected in mice with significant tumor burdens, mice across treatment groups had decreased albumin levels and evidence of mild marrow hypoplasia resulting in mild anemia, and lower white blood cell and platelet counts. This effect was independent of treatment group and likely related to tumor burden at the time of sacrifice.

ovarian cancer = conditions: cited from earlier work

## Cn1cc(C2=C(c3coc4ccc(F)cc34)C(=O)NC2=O)c2cc3c(cc21)OCO3 [9-ING-41]
SW480 tumor cells; 5 μM 9-ING-41, 24-hour co-culture
  dead cells out of total cells, average, after normalization: 33%
SW480 tumor cells; 10 μM 9-ING-41, 24-hour co-culture
  dead cells out of total cells, average, after normalization: 37%
SW480 tumor cells; after treatment, 24 hours
  amount of TALL-104 cell-mediated SW480 cell-killing: dose-dependent increase
SW480 tumor cells; compared to controls without drug treatment
  T cell (TALL-104) killing of colorectal cancer cells: significant increase
SW480 tumor cells; monoculture, no immune cells
  tumor cell death in SW480 monocultures treated with drug only: Limited tumor cell death
SW480 tumor cells; tumor cells pre-treated 24 hours before co-culture
  TALL-104 cell-mediated cell killing after tumor cell pre-treatment: sensitized
NK-92 cells
  IFN-γ and TRAIL: increases
  concentration of secreted granzyme B: decreases
TALL-104
  TRAIL expression: significant decreased
[1]
  electrolyte perturbations: free of significant electrolyte perturbations
  renal function (blood urea nitrogen and creatinine): maintained normal renal function
Ovarian cancer
  activity compared with lithium and other ATP-competitive inhibitors such as SB216763: more active
